Measured values as given in PubChem BioAssay AID2060363 (Molecular Pharmacology Branch, DTP, NCI, 2025).

Test system: 156681-154-R-J1-PDC tumor spheroids, viability % test/control
Assay: Anticancer human tumor 156681-154-R-J1-PDC patient-derived melanoma cell line growth inhibition [TAK]
Details: spheroids with HUVEC and MSC; for IC50: curve of first compound; for viability, T/C: stronger effect = lower value
Summary of the method: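 Tumor cells were grown as spheroids with HUVEC and hMSC (60:25:15) and treated with targeted agents combined with TAK-243 or ipatasertib. Drugs were tested in half-log steps down from near the clinical Cmax, or from 10 microM where Cmax was unknown.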

[1] = second compound 0.3 µM, first compound 0.0316 µM
[2] = second compound 0.3 µM, first compound 0.1 µM
[3] = second compound 0.3 µM, first compound 0.316 µM
[4] = second compound 0.3 µM, first compound 1 µM
[5] = second compound 0.3 µM, first compound 3.16 µM
[6] = second compound 0.3 µM, first compound 10 µM
[7] = second compound 0.949 µM, first compound 0.0316 µM
[8] = second compound 0.949 µM, first compound 0.1 µM
[9] = second compound 0.949 µM, first compound 0.316 µM
[10] = second compound 0.949 µM, first compound 1 µM
[11] = second compound 0.949 µM, first compound 3.16 µM
[12] = second compound 0.949 µM, first compound 10 µM
[13] = second compound 3 µM, first compound 0.0316 µM
[14] = second compound 3 µM, first compound 0.1 µM
[15] = second compound 3 µM, first compound 0.316 µM
[16] = second compound 3 µM, first compound 1 µM
[17] = second compound 3 µM, first compound 3.16 µM
[18] = second compound 3 µM, first compound 10 µM
[19] = second compound 9.49 µM, first compound 0.0316 µM
[20] = second compound 9.49 µM, first compound 0.1 µM
[21] = second compound 9.49 µM, first compound 0.316 µM
[22] = second compound 9.49 µM, first compound 1 µM
[23] = second compound 9.49 µM, first compound 3.16 µM
[24] = second compound 9.49 µM, first compound 10 µM
[25] = second compound 30 µM, first compound 0.0316 µM
[26] = second compound 30 µM, first compound 0.1 µM
[27] = second compound 30 µM, first compound 0.316 µM
[28] = second compound 30 µM, first compound 1 µM
[29] = second compound 30 µM, first compound 3.16 µM
[30] = second compound 30 µM, first compound 10 µM
[31] = second compound 0.3 µM, first compound 0.00316 µM
[32] = second compound 0.3 µM, first compound 0.01 µM
[33] = second compound 0.949 µM, first compound 0.00316 µM
[34] = second compound 0.949 µM, first compound 0.01 µM
[35] = second compound 3 µM, first compound 0.00316 µM
[36] = second compound 3 µM, first compound 0.01 µM
[37] = second compound 9.49 µM, first compound 0.00316 µM
[38] = second compound 9.49 µM, first compound 0.01 µM
[39] = second compound 30 µM, first compound 0.00316 µM
[40] = second compound 30 µM, first compound 0.01 µM
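Note: spheroids exposed to compounds for 7 days before the endpoint.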

Structure (SMILES) | IC50 (second compound 0.3 µM) [nM] | IC50 (second compound 0.949 µM) [nM] | IC50 (second compound 3 µM) [nM] | IC50 (second compound 9.49 µM) [nM] | IC50 (second compound 30 µM) [nM] | viability, T/C [1] [%] | viability, T/C [2] [%] | viability, T/C [3] [%] | viability, T/C [4] [%] | viability, T/C [7] [%] | viability, T/C [8] [%] | viability, T/C [9] [%] | viability, T/C [10] [%] | viability, T/C [13] [%] | viability, T/C [14] [%] | viability, T/C [15] [%] | viability, T/C [19] [%] | viability, T/C [20] [%] | viability, T/C [25] [%] | viability, T/C [26] [%] | other results
CC(C)(C)c1nc(-c2cccc(NS(=O)(=O)c3c(F)cccc3F)c2F)c(-c2ccnc(N)n2)s1 + CC(C)NCC(C(=O)N1CCN(c2ncnc3c2C(C)CC3O)CC1)c1ccc(Cl)cc1 | 239 | 214 | 148 | < 31.6 | < 31.6 | 103 | 90.7 | 36.9 | 14.5 | 90.1 | 79 | 35.1 | 12.7 | 67.6 | 62.4 | 26.1 | 40.1 | 31.7 | 15.6 | 13 | viability, T/C [5]: 11.9%; viability, T/C [6]: 12.7%; viability, T/C [11]: 8.47%; viability, T/C [12]: 8.82%; viability, T/C [16]: 7.91%; viability, T/C [17]: 5.22%; viability, T/C [18]: 6.48%; viability, T/C [21]: 17.3%; viability, T/C [22]: 6.56%; viability, T/C [23]: 3.41%; viability, T/C [24]: 3.45%; viability, T/C [27]: 7.77%; viability, T/C [28]: 2.12%; viability, T/C [29]: 1.1%; viability, T/C [30]: 1.52%
CC(C)n1nc(-c2ccc3oc(N)nc3c2)c2c(N)ncnc21 + CC(C)NCC(C(=O)N1CCN(c2ncnc3c2C(C)CC3O)CC1)c1ccc(Cl)cc1 | 26 | 12.5 | 2.4 | < 0.316 | < 0.316 | 45.9 | 25.2 | – | – | 32.1 | 20 | – | – | 19.7 | 11 | – | 11 | 4.26 | 3.39 | 1.21 | viability, T/C (second compound 0.3 µM, first compound 0.000316 µM): 94.5%; viability, T/C (second compound 0.3 µM, first compound 0.001 µM): 91.8%; viability, T/C [31]: 84.1%; viability, T/C [32]: 69.4%; viability, T/C (second compound 0.949 µM, first compound 0.000316 µM): 83.4%; viability, T/C (second compound 0.949 µM, first compound 0.001 µM): 85.4%; viability, T/C [33]: 63.8%; viability, T/C [34]: 58.6%; viability, T/C (second compound 3 µM, first compound 0.000316 µM): 65.4%; viability, T/C (second compound 3 µM, first compound 0.001 µM): 57.3%; viability, T/C [35]: 46.2%; viability, T/C [36]: 38.3%; viability, T/C (second compound 9.49 µM, first compound 0.000316 µM): 39.9%; viability, T/C (second compound 9.49 µM, first compound 0.001 µM): 33.4%; viability, T/C [37]: 23.3%; viability, T/C [38]: 16.3%; viability, T/C (second compound 30 µM, first compound 0.000316 µM): 15.5%; viability, T/C (second compound 30 µM, first compound 0.001 µM): 14.4%; viability, T/C [39]: 12.3%; viability, T/C [40]: 7.31%
COc1c(OCCCN2CCOCC2)ccc2c3n(c(=NC(=O)c4cnc(N)nc4)nc12)CCN3 + CC(C)NCC(C(=O)N1CCN(c2ncnc3c2C(C)CC3O)CC1)c1ccc(Cl)cc1 | 65.8 | 51.2 | 16.8 | < 3.16 | < 3.16 | 70.6 | 38.3 | 11.3 | 2.36 | 61 | 33.3 | 6.84 | 1.52 | 40.7 | 21.7 | 3.81 | 18.5 | 9.13 | 6.36 | 3.28 | viability, T/C [31]: 94.6%; viability, T/C [32]: 91.4%; viability, T/C [33]: 86.7%; viability, T/C [34]: 85.1%; viability, T/C [35]: 67.4%; viability, T/C [36]: 56.6%; viability, T/C [16]: 1.29%; viability, T/C [37]: 30.9%; viability, T/C [38]: 35.9%; viability, T/C [21]: 2.36%; viability, T/C [22]: 1.24%; viability, T/C [39]: 13.6%; viability, T/C [40]: 11.5%; viability, T/C [27]: 0.7%; viability, T/C [28]: 0.29%
Cc1nc(NC(=O)N2CCCC2C(N)=O)sc1-c1ccnc(C(C)(C)C(F)(F)F)c1 (stereo not given) + CC(C)NCC(C(=O)N1CCN(c2ncnc3c2C(C)CC3O)CC1)c1ccc(Cl)cc1 | > 10000 | 7110 | 1460 | < 31.6 | < 31.6 | 95.5 | 99 | 91 | 71.5 | 85.8 | 83.9 | 79 | 70.3 | 69.7 | 67.9 | 61.5 | 39.5 | 35.6 | 18 | 18 | viability, T/C [5]: 67.3%; viability, T/C [6]: 51.4%; viability, T/C [11]: 62%; viability, T/C [12]: 44.9%; viability, T/C [16]: 53.8%; viability, T/C [17]: 42.5%; viability, T/C [18]: 30.6%; viability, T/C [21]: 36.6%; viability, T/C [22]: 26.8%; viability, T/C [23]: 17.2%; viability, T/C [24]: 7.68%; viability, T/C [27]: 11.3%; viability, T/C [28]: 8.89%; viability, T/C [29]: 3.83%; viability, T/C [30]: 0.52%
